Earlier results in patent US11638760B2, “Pyrrolobenzodiazepine antibody conjugates” (priority 2017, dated 2023).

Settings: Phase I clinical evaluation

Compound: C=C1C[C@H]2C=Nc3cc(OCCCOc4cc5c(cc4OC)C(=O)N4CC(=C)C[C@H]4C=N5)c(OC)cc3C(=O)N2C1 [SJG-136]
- maximum tolerated dose: 45 μg/m
